Data from patent publication US8802675B2, “Neuroprotective multifunctional compounds and pharmaceutical compositions comprising them” (priority 2009, dated 2014).
“And” between values parts separate entries of the source, which are not always exact repeats. Equal entries are not always repeated. Where two headings read alike, the source gives them in different places.

How the values were obtained:
[1] = target: T1, rat brain MAO-B (Rattus norvegicus, UniProt P19643); test: biochemical; conditions: for inhibition at 10 µM: read-out: percent inhibition MAO-B
T1 construct: from tissue; host or cells: rat brain homogenate
T1 sequence (P19643 1-520): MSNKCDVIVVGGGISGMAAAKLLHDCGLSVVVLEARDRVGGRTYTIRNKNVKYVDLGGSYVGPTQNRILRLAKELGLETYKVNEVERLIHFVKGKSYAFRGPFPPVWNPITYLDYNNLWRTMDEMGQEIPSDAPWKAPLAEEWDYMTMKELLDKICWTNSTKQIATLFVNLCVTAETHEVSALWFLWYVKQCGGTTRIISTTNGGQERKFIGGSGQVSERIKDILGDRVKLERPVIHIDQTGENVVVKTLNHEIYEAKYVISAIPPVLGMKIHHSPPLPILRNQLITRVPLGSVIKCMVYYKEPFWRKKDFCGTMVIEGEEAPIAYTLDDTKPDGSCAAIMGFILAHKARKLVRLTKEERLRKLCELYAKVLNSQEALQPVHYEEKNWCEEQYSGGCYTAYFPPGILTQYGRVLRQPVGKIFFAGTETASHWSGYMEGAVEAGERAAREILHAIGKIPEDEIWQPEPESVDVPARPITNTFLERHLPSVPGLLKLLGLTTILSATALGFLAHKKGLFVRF

[2] = target: T2, butyrylcholinesterase (BuChE) (Rattus norvegicus, UniProt Q9JKC1); test: Butyrylcholinesterase inhibition in rat brain homogenates (Ellman); format: biochemical; conditions: mean SEM, n=3 in triplicates
T2 construct: total cholinesterase (ChE) and butyrylcholinesterase (BuChE) activities in rat brain homogenates; from tissue; host or cells: brain homogenate (10% w/v) of adult Wistar rats
Method: Cholinesterase activity was determined in rat brain homogenate following incubation with varying concentrations of the multifunctional pro-chelators of the invention (also referred to herein as “carbamates”).
Ellman's colorimetric method was adapted for determination of total cholinesterase (ChE) and butyrylcholinesterase (BuChE) activities in rat brain homogenates. Brain tissue from adult Wistar rats was homogenized at 2% w/v (or 10% w/v, for BuChE) in 0.1 M sodium phosphate buffer, pH 7.4, with added NaCl 58.5 g/l and Triton X-100 0.05% v/v. Aliquots of homogenate (20 μl) were incubated with the test compounds for designed time intervals in phosphate buffer pH 7.4, before addition of 5,5′-dithiobis(2-nitrobenzoic) acid and either 1 mM acetylthiocholine iodide or 10 mM butyrylthiocholine iodide (Sigma, St. Louis, Mo.). The reaction was run at 37° C. in a final volume of […] in 96-well microplates and was followed at 412 nm for 5 min with a plate reader. In every experiment, cholinesterase-independent (nonspecific) substrate hydrolysis was determined by including one experimental group treated with tacrine 30 μM. Appropriate tissue and reagent blanks were also included. Reaction velocities were determined in three or four replicates per condition; these were averaged and expressed as percent activity relative to control (solvent), after subtracting the rate of nonspecific hydrolysis.
The results are the mean SEM, n=3 in triplicates. ND—not determined.

[3] = IC50 MAO-B, rat brain homogenate in vitro, mean SEM, n=3 in triplicates

T2 sequence (Q9JKC1 24-597): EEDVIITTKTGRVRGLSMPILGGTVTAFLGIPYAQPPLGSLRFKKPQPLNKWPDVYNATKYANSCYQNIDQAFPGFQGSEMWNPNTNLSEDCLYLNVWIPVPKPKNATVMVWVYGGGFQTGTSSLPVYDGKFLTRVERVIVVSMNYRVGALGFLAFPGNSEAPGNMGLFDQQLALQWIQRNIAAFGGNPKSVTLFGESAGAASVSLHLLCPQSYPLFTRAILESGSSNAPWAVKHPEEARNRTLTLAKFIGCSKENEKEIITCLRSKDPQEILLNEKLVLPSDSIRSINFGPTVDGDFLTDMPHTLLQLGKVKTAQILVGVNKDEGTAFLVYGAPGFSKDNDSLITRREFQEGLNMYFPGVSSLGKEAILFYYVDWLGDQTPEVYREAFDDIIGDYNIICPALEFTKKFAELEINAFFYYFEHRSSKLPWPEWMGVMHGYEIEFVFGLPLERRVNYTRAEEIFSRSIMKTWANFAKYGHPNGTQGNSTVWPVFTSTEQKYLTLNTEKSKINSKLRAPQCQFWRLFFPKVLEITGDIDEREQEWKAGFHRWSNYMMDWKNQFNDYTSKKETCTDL

Row | SMILES | inhibition at 10 µM [1] | IC50 [2] | IC50 [1, 3] | inhibitory effect on MAO-B ([1]; rat brain homogenate) | IC50 [1]
1 | C#CCN(C)Cc1ccc(OC(=O)N(C)CC)c2ncccc12 [Compound 3, 5-((methyl(propargyl)amino)methyl)quinolin-8-yl ethyl(methyl)carbamate] | 9% | 60.7 ± 5.33 µM |  |  | 
2 | C#CCN(C)Cc1ccc(OC(=O)N2CCCC2)c2ncccc12 [Compound 5, 5-((methyl(propargyl)amino)methyl)quinolin-8-yl pyrrolidine-1-carboxylate] |  | 31.2 ± 6.1 µM | 5.06 µM and 5.6 µM |  | 
3 | C#CCN(C)Cc1ccc(OC(=O)N2CCN(Cc3ccccc3)CC2)c2ncccc12 [Compound 13, 5-((methyl(propargyl)amino)methyl)quinolin-8-yl 4-benzyl piperazine-1-carboxylate] |  | 46 ± 3.5 µM | 0.084 µM |  | 
4 | C#CCC1CCN(Cc2ccc(OC(=O)N(C)C)c3ncccc23)CC1 [Compound 23, 5-((4-(propargyl)piperidin-1-yl)methyl)quinolin-8-yl dimethylcarbamate] | 3% | 42.6 ± 6.67 µM |  | minor to none inhibitory effects | 
5 | C#CCN(C)Cc1ccc(O)c2ncccc12 [M30, reference compound] |  |  |  |  | 0.057 ± 0.01 µM
